Measurements as given in the supplement of paper PMC10307832.

The cell lines below were run with CN1CCC(CC1)OC2=CC(=C(C=C2)NC3=NC=C4C(=N3)N(C(=O)N4C)C5CCCC5)OC [AZ3146] + N=C(N)NC(=N)NCCc1ccccc1 [Phenformin] (partner 250 µM) (assay: relative viability (nuclei count vs DMSO), 5 days (fraction); higher = more cells survive). Conditions: first compound 0.08 µM.
Method in brief: (§1)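 Lung cancer cell lines in 1536-well plates were dosed by pin tool the day after seeding, either with one drug alone or with a fixed anchor-drug dose plus five library-drug doses (not always all listed) in √10 steps. After 5 days, cells were fixed and their nuclei stained in one step (final 0.05% Triton X-100, 1% formaldehyde, 1 ug/ml Hoechst), then counted on 4× images. Relative viability is the nuclei count in treated wells divided by that in vehicle wells. Values are medians of duplicate plates.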

NCI-H2170 was tested. Which relative viability did it give?
Its relative viability is 0.352.

How did the relative viability turn out when NCI-H2009 was run?
Its relative viability is 0.478.

With ABC-1 as the cell line, how does the relative viability read?
The relative viability was 0.266.

SK-MES-1 was tested. Which relative viability did it give?
Its relative viability is 0.661.

NCI-H727 was tested. Which relative viability did it give?
Its relative viability is 0.456.

Which relative viability does the source give for SW 1573 here?
Its relative viability is 0.398.

Same assay, conditions: first compound 0.253 µM

How did the relative viability turn out when NCI-H2170 was run?
Its relative viability is 0.434.

How did the relative viability turn out when NCI-H2009 was run?
The relative viability was 0.494.

With ABC-1 as the cell line, how does the relative viability read?
The relative viability was 0.19.

With SK-MES-1 as the cell line, how does the relative viability read?
Its relative viability is 0.649.

How did the relative viability turn out when NCI-H727 was run?
The relative viability was 0.545.

For SW 1573, which relative viability is on record?
The relative viability was 0.407.

Same assay, conditions: first compound 0.8 µM

For NCI-H2170, which relative viability is on record?
Its relative viability is 0.338.

NCI-H2009 was tested. Which relative viability did it give?
The relative viability was 0.402.

Which relative viability does the source give for ABC-1 here?
The relative viability was 0.212.

With SK-MES-1 as the cell line, how does the relative viability read?
The relative viability was 0.61.

How did the relative viability turn out when NCI-H727 was run?
Its relative viability is 0.341.

SW 1573 was tested. Which relative viability did it give?
The relative viability was 0.365.

Same assay, conditions: first compound 2.53 µM

With NCI-H2170 as the cell line, how does the relative viability read?
Its relative viability is 0.364.

NCI-H2009 was tested. Which relative viability did it give?
Its relative viability is 0.386.

Which relative viability does the source give for ABC-1 here?
The relative viability was 0.226.

SK-MES-1 was tested. Which relative viability did it give?
The relative viability was 0.635.

For NCI-H727, which relative viability is on record?
Its relative viability is 0.61.

Which relative viability does the source give for SW 1573 here?
The relative viability was 0.367.

Same assay, conditions: first compound 8 µM

With NCI-H2170 as the cell line, how does the relative viability read?
The relative viability was 0.357.

Which relative viability does the source give for NCI-H2009 here?
Its relative viability is 0.311.

Which relative viability does the source give for ABC-1 here?
The relative viability was 0.26.

With SK-MES-1 as the cell line, how does the relative viability read?
Its relative viability is 0.518.

NCI-H727 was tested. Which relative viability did it give?
Its relative viability is 0.417.

With SW 1573 as the cell line, how does the relative viability read?
Its relative viability is 0.239.

What follows are cell lines tested with CCOC(=O)CCNc1cc(N2CCc3ccccc3CC2)nc(-c2ccccn2)n1 [GSK-J4] + COc1cccc2cc(-c3nc([C@H]4CC[C@H](C(=O)O)CC4)n4ncnc(N)c34)[nH]c12 [OSI-027] (partner 0.5 µM) in the same assay as above. Conditions: first compound 0.5 µM.
Method in brief: as §1

How did the relative viability turn out when NCI-H2170 was run?
Its relative viability is 0.692.

How did the relative viability turn out when NCI-H2009 was run?
The relative viability was 0.573.

How did the relative viability turn out when ABC-1 was run?
Its relative viability is 0.533.

How did the relative viability turn out when SK-MES-1 was run?
Its relative viability is 0.573.

For NCI-H727, which relative viability is on record?
The relative viability was 0.745.

For SW 1573, which relative viability is on record?
Its relative viability is 0.657.

Same assay, conditions: first compound 1.581 µM

With NCI-H2170 as the cell line, how does the relative viability read?
Its relative viability is 0.696.

Which relative viability does the source give for NCI-H2009 here?
The relative viability was 0.491.

Which relative viability does the source give for ABC-1 here?
The relative viability was 0.442.

How did the relative viability turn out when SK-MES-1 was run?
The relative viability was 0.542.

With NCI-H727 as the cell line, how does the relative viability read?
The relative viability was 0.383.

For SW 1573, which relative viability is on record?
Its relative viability is 0.423.

Same assay, conditions: first compound 5 µM

NCI-H2170 was tested. Which relative viability did it give?
The relative viability was 0.718.

For NCI-H2009, which relative viability is on record?
The relative viability was 0.601.

With ABC-1 as the cell line, how does the relative viability read?
The relative viability was 0.441.

Which relative viability does the source give for SK-MES-1 here?
Its relative viability is 0.535.

For NCI-H727, which relative viability is on record?
The relative viability was 0.842.

How did the relative viability turn out when SW 1573 was run?
The relative viability was 0.507.

Same assay, conditions: first compound 15.81 µM

How did the relative viability turn out when NCI-H2170 was run?
The relative viability was 0.702.

For NCI-H2009, which relative viability is on record?
Its relative viability is 0.527.

ABC-1 was tested. Which relative viability did it give?
The relative viability was 0.357.

How did the relative viability turn out when SK-MES-1 was run?
The relative viability was 0.436.

Which relative viability does the source give for NCI-H727 here?
The relative viability was 0.55.

For SW 1573, which relative viability is on record?
Its relative viability is 0.519.

Same assay, conditions: first compound 50 µM

How did the relative viability turn out when NCI-H2170 was run?
The relative viability was 0.524.

NCI-H2009 was tested. Which relative viability did it give?
Its relative viability is 0.283.

How did the relative viability turn out when ABC-1 was run?
Its relative viability is 0.336.

For SK-MES-1, which relative viability is on record?
The relative viability was 0.327.

With NCI-H727 as the cell line, how does the relative viability read?
The relative viability was 0.322.

Which relative viability does the source give for SW 1573 here?
Its relative viability is 0.211.

These cell lines were tested with CCOC(=O)CCNc1cc(N2CCc3ccccc3CC2)nc(-c2ccccn2)n1 [GSK-J4] + N=C(N)NC(=N)NCCc1ccccc1 [Phenformin] (partner 250 µM) in the same assay as above. Conditions: first compound 0.5 µM.
Method in brief: as §1

NCI-H2170 was tested. Which relative viability did it give?
Its relative viability is 0.38.

How did the relative viability turn out when NCI-H2009 was run?
Its relative viability is 0.456.

With ABC-1 as the cell line, how does the relative viability read?
Its relative viability is 0.232.

For SK-MES-1, which relative viability is on record?
Its relative viability is 0.582.

With NCI-H727 as the cell line, how does the relative viability read?
Its relative viability is 0.566.

How did the relative viability turn out when SW 1573 was run?
Its relative viability is 0.315.

Same assay, conditions: first compound 1.581 µM

With NCI-H2170 as the cell line, how does the relative viability read?
The relative viability was 0.352.

With NCI-H2009 as the cell line, how does the relative viability read?
Its relative viability is 0.419.

Which relative viability does the source give for ABC-1 here?
Its relative viability is 0.259.

Which relative viability does the source give for SK-MES-1 here?
The relative viability was 0.585.

For NCI-H727, which relative viability is on record?
The relative viability was 0.76.

SW 1573 was tested. Which relative viability did it give?
The relative viability was 0.326.

Same assay, conditions: first compound 5 µM

NCI-H2170 was tested. Which relative viability did it give?
Its relative viability is 0.341.

For NCI-H2009, which relative viability is on record?
Its relative viability is 0.354.

Which relative viability does the source give for ABC-1 here?
The relative viability was 0.245.

For SK-MES-1, which relative viability is on record?
Its relative viability is 0.594.

With NCI-H727 as the cell line, how does the relative viability read?
The relative viability was 0.791.

How did the relative viability turn out when SW 1573 was run?
Its relative viability is 0.336.

Same assay, conditions: first compound 15.81 µM

Which relative viability does the source give for NCI-H2170 here?
The relative viability was 0.387.

NCI-H2009 was tested. Which relative viability did it give?
The relative viability was 0.341.

With ABC-1 as the cell line, how does the relative viability read?
Its relative viability is 0.217.

How did the relative viability turn out when SK-MES-1 was run?
The relative viability was 0.565.

For NCI-H727, which relative viability is on record?
The relative viability was 0.589.

SW 1573 was tested. Which relative viability did it give?
The relative viability was 0.262.

Same assay, conditions: first compound 50 µM

NCI-H2170 was tested. Which relative viability did it give?
The relative viability was 0.275.

With NCI-H2009 as the cell line, how does the relative viability read?
The relative viability was 0.222.

Which relative viability does the source give for ABC-1 here?
The relative viability was 0.201.

SK-MES-1 was tested. Which relative viability did it give?
The relative viability was 0.371.

With NCI-H727 as the cell line, how does the relative viability read?
The relative viability was 0.441.

How did the relative viability turn out when SW 1573 was run?
Its relative viability is 0.247.

What follows are cell lines tested with CCOC(=O)CCNc1cc(N2CCc3ccccc3CC2)nc(-c2ccccn2)n1 [GSK-J4] + CC(=O)c1c(C)c2cnc(Nc3ccc(N4CCNCC4)cn3)nc2n(C2CCCC2)c1=O [Palbociclib] (partner 0.5 µM) in the same assay as above. Conditions: first compound 0.5 µM.
Method in brief: as §1

Which relative viability does the source give for NCI-H2170 here?
Its relative viability is 0.372.

Which relative viability does the source give for NCI-H2009 here?
Its relative viability is 0.242.

Which relative viability does the source give for ABC-1 here?
The relative viability was 0.599.

For SK-MES-1, which relative viability is on record?
The relative viability was 0.314.

With NCI-H727 as the cell line, how does the relative viability read?
The relative viability was 0.648.

How did the relative viability turn out when SW 1573 was run?
The relative viability was 0.38.

Same assay, conditions: first compound 1.581 µM

With NCI-H2170 as the cell line, how does the relative viability read?
The relative viability was 0.393.

NCI-H2009 was tested. Which relative viability did it give?
Its relative viability is 0.166.

For ABC-1, which relative viability is on record?
The relative viability was 0.589.

How did the relative viability turn out when SK-MES-1 was run?
The relative viability was 0.29.

NCI-H727 was tested. Which relative viability did it give?
Its relative viability is 0.683.

With SW 1573 as the cell line, how does the relative viability read?
The relative viability was 0.336.

Same assay, conditions: first compound 5 µM

NCI-H2170 was tested. Which relative viability did it give?
The relative viability was 0.392.

NCI-H2009 was tested. Which relative viability did it give?
The relative viability was 0.223.

Which relative viability does the source give for ABC-1 here?
The relative viability was 0.605.

SK-MES-1 was tested. Which relative viability did it give?
The relative viability was 0.319.

Which relative viability does the source give for NCI-H727 here?
Its relative viability is 0.696.

SW 1573 was tested. Which relative viability did it give?
Its relative viability is 0.347.

Same assay, conditions: first compound 15.81 µM

For NCI-H2170, which relative viability is on record?
The relative viability was 0.311.

How did the relative viability turn out when NCI-H2009 was run?
The relative viability was 0.216.

ABC-1 was tested. Which relative viability did it give?
The relative viability was 0.691.

For SK-MES-1, which relative viability is on record?
The relative viability was 0.283.

How did the relative viability turn out when NCI-H727 was run?
Its relative viability is 0.593.

Which relative viability does the source give for SW 1573 here?
The relative viability was 0.382.

Same assay, conditions: first compound 50 µM

For NCI-H2170, which relative viability is on record?
Its relative viability is 0.378.

With NCI-H2009 as the cell line, how does the relative viability read?
Its relative viability is 0.202.

With ABC-1 as the cell line, how does the relative viability read?
The relative viability was 0.432.

For SK-MES-1, which relative viability is on record?
Its relative viability is 0.313.

With NCI-H727 as the cell line, how does the relative viability read?
Its relative viability is 0.528.

With SW 1573 as the cell line, how does the relative viability read?
Its relative viability is 0.237.
